Measurements as given in US5364623A, “Antibiotic produced by Bacillus subtilis ATCC 55422 capable of inhibiting bacteria” (Bristol-Myers Squibb Company, priority 1993, dated 1994).
In brackets after ≈: the same amount, converted by molar mass.

What was measured:
[1] = test system: Escherichia coli; experiment: MIC, liquid broth tube dilution, E. coli strains overall; format: cell-based
Description: (§1) (1) Determination of the minimum concentration of bacillaene required for total inhibition of growth (MIC) was performed using liquid H108 medium containing Bacto-Tryptone (10g); Bacto-yeast extract (5 g); NaCl (5 g); and distilled water (1 liter). The assays were performed in 13×100 mm glass tubes in a final volume of 0.5 ml. Two fold dilutions of the compound were utilized. The cultures were incubated at 37° C. in a test-tube rack on a shaker. Presence of turbidity was used as an indicator of growth. The tubes were read after 6-7 hours of incubation.

[2] = test system: Escherichia coli SGB-10857; experiment: MIC, liquid broth tube dilution assay, E. coli SGB-10857; format: cell-based; conditions: H108 medium, 37° C., 6-7 hours
Description: as §1

[3] = test system: Saccharomyces cervesiae; experiment: Growth of eukaryotic cells; format: cell-based
[4] = test system: Escherichia coli BAS-2006; experiment: MIC, liquid broth tube dilution assay, E. coli BAS-2006; format: cell-based; conditions: H108 medium, 37° C., 6-7 hours
Description: as §1

[5] = test system: Staphylococcus aureus SC-2400; experiment: Agar diffusion, S. aureus SC-2400; format: cell-based; conditions: 25 μg per well, overnight at 37° C.
Description: (§2) (3) The effect of bacillaene on a wide spectrum of bacteria was determined using the agar diffusion method. The bacteria to be tested were grown in […] broth overnight at 37° C. This culture was used to inoculate […] agar using a standard pour plate method. A 1% inoculum of the overnight culture was used. Wells of 2 mm diameter were punched in the agar and bacillaene (25 μg) was loaded in each well. The plates were incubated overnight at 37° C. and lack of growth around the agar well was scored as inhibition by bacillaene of the growth of the organism.

[6] = test system: Staphylococcus aureus 209P; experiment: Agar diffusion, S. aureus 209P; format: cell-based; conditions: 25 μg per well, overnight at 37° C.
Description: as §2

[7] = test system: Rabbit reticulocyte in vitro trans. sys.; experiment: In vitro protein synthesis, eucaryotic (rabbit reticulocyte) translation system; format: biochemical
[8] = test system: Escherichia coli impB; experiment: MIC, liquid broth tube dilution assay, E. coli impB; format: cell-based; conditions: H108 medium, 37° C., 6-7 hours
Description: as §1

[9] = test system: Escherichia coli SGB-888; experiment: MIC, liquid broth tube dilution assay, E. coli SGB-888; format: cell-based; conditions: H108 medium, 37° C., 6-7 hours
Description: as §1

[10] = test system: Procaryotic in vitro transc.-transl. sys.; experiment: In vitro protein synthesis, procaryotic transcription-translation coupled system (35S incorporation); format: biochemical
Description: A prokaryotic in vitro transcription-translation coupled system was used for these experiments (Promega Corporation, 2800, Woods Hollow Road, Madison, Wis.).

[11] = test system: Escherichia coli K-10; experiment: MIC, liquid broth tube dilution assay, E. coli K-10; format: cell-based; conditions: H108 medium, 37° C., 6-7 hours
Description: as §1

C/C(=C/C=C/C=C/C(C)C(=O)O)NC(=O)CC(O)\C(C)=C/C=C\C=C(C)\C=C\C=C/C=C/CNC(=O)C(O)CC(C)C (stereo not shown) [Bacillaene, bacillaene]
potency against certain strains of Escherichia coli (in words) [1]: extremely potent
MIC [2]: 5.0 µg/mL (≈ 8.61 µM)
effect on growth of eukaryotic cells (in words) [3]: not observed to affect the growth
MIC [4]: 0.60 µg/mL (≈ 1.03 µM)
Growth Inhibition [5]: ++ (hazy)
Growth Inhibition [6]: ++ (hazy)
inhibition of eucaryotic in vitro protein translation system (in words) ([7]; at the concentrations tested): failed to inhibit
Inhibition of in vitro protein synthesis, rabbit reticulocyte in vitro trans. sys. ([7]; final conc. 0.75 μg/ml): < 7.0%
Inhibition of in vitro protein synthesis, rabbit reticulocyte in vitro trans. sys. ([7]; final conc. 1.5 μg/ml): < 7.0%
Inhibition of in vitro protein synthesis, rabbit reticulocyte in vitro trans. sys. ([7]; final conc. 6.0 μg/ml): < 7.0%
MIC [8]: 0.50 µg/mL (≈ 0.861 µM)
MIC [9]: 0.09 µg/mL (≈ 0.155 µM)
inhibition of procaryotic protein synthesis (in words) ([10]; 35S incorporation into trichloroacetic-acid-precipitable polypeptides): potent inhibitor of procaryotic protein synthesis
Inhibition of in vitro protein synthesis, procaryotic in vitro transc.-transl. sys. ([10]; final conc. 0.75 μg/ml): > 88.0%
Inhibition of in vitro protein synthesis, procaryotic in vitro transc.-transl. sys. ([10]; final conc. 1.5 μg/ml): > 95.0%
MIC [11]: 37.0 µg/mL (≈ 63.7 µM)
